Test: recombinant barcode read abundance after kanamycin selection (control-corrected) (log10(CPM+1)); higher = more efficient recombination; sequences stand for … in AGTGCAGAGAAAATCGGCCAGTTTTCTCTGCCTGCAGTCCGCATGCCGT…AGATTTATGCAGCGGACTGCCTTTCTCCCAAAGTGATAAACCGGACAGTATCATGGACCGGTTTTCCCGGTAATCCGTATTTGCAAGGTTGGTTTCACT; site = the 11-nt target
Method in brief: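 Values are log10(CPM+1) from a pooled E. coli screen of targets paired with IS621 bridge RNA target-binding loops. Recombination efficiency here means counts per million of recombinant-junction barcodes, averaged and control-corrected. Plates were chloramphenicol/ampicillin LB agar for the control and chloramphenicol/ampicillin/kanamycin with 0.1 mM IPTG, two replicates each.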
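Further: IS621 recombinase and bridge RNA in Escherichia coli cells.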

| Sequence | recombinant barcode read abundance (log10) |
| --- | --- |
| CATAGACCTTGGGTTCTAACCTGTTGCAT (site CATAGACCTAT) | 1.82 |
| CATAGACCTTGGGTTCTAACCTGTTGCAT (site CATAGCCCTAT) | 0.0625 |
| CATAGACCTTGGGTTCTAACCTGTTGCAT (site CATAGGCCTAT) | 0.0233 |
| CATAGACCTTGGGTTCTAACCTGTTGCAT (site CATAGTCCTAT) | 0.0411 |
| CATAGACCTTGGGTTCTAACCTGTTGCCT (site CATAGACCTAG) | 1.45 |
| CATAGACCTTGGGTTCTAACCTGTTGCCT (site GATAGACCTAG) | 0.00901 |
| CATAGATCTTGGGTTCTAACCTGTTGCTT (site CAAAGATCTAA) | 0.271 |
| CATAGATCTTGGGTTCTAACCTGTTGCTT (site CACAGATCTAA) | 0.385 |
| CATAGATCTTGGGTTCTAACCTGTTGCTT (site CAGAGATCTAA) | 0.0253 |
| CATAGATCTTGGGTTCTAACCTGTTGCTT (site CATAGATCTAA) | 0.119 |
| CATAGCCCTTGGGTTCTAACCTGTTGCAT (site CATAGACCTAT) | 0.176 |
| CATAGCCCTTGGGTTCTAACCTGTTGCAT (site CATAGCCCTAT) | 1.11 |
| CATAGCCCTTGGGTTCTAACCTGTTGCAT (site CATAGGCCTAT) | 0.117 |
| CATAGCCCTTGGGTTCTAACCTGTTGCAT (site CATAGTCCTAT) | 0.0192 |
| CATATCCCTTGGGTTCTAACCTGTTGCAT (site CATATCCCTAT) | 1.33 |
| CATATCCCTTGGGTTCTAACCTGTTGCAT (site CTAATCCCTAT) | 0.03 |
| CATATGACTTGGGTTCTAACCTGTTGCCT (site CATATGACTAG) | 1.2 |
| CATATGACTTGGGTTCTAACCTGTTGCCT (site TCAGGAGCTTA) | 0.126 |
| CATCATTCTTGGGTTCTAACCTGTTGCCT (site CATAATTCTAG) | 0.144 |
| CATCATTCTTGGGTTCTAACCTGTTGCCT (site CATCATTCTAG) | 0.215 |
| CATCATTCTTGGGTTCTAACCTGTTGCCT (site CATGATTCTAG) | 0.118 |
| CATCATTCTTGGGTTCTAACCTGTTGCCT (site CATTATTCTAG) | 0 |
| CATCCGACTTGGGTTCTAACCTGTTGCCT (site CATCCGACTAG) | 0.92 |
| CATCCGACTTGGGTTCTAACCTGTTGCCT (site CATCCGCCTAG) | 0.163 |
| CATCCGACTTGGGTTCTAACCTGTTGCCT (site CATCCGGCTAG) | 0.33 |
| CATCCGACTTGGGTTCTAACCTGTTGCCT (site CATCCGTCTAG) | 0.0237 |

| Sequence | recombinant barcode read abundance (log10) |
| --- | --- |
| CATCCTCCTTGGGTTCTAACCTGTTGCTG (site CATCCTACTCC) | 0.463 |
| CATCCTCCTTGGGTTCTAACCTGTTGCTG (site CATCCTCCTCA) | 0.666 |
| CATCGGACTTGGGTTCTAACCTGTTGCAA (site CATCGGACTTT) | 1.14 |
| CATCGGACTTGGGTTCTAACCTGTTGCAA (site GGCTAACCTAG) | 0.336 |
| CATGACACTTGGGTTCTAACCTGTTGCCT (site CATGACACTAG) | 2.45 |
| CATGACACTTGGGTTCTAACCTGTTGCCT (site CATGCCGCTAG) | 0.0486 |
| CATGCTACTTGGGTTCTAACCTGTTGCTC (site CATGCGACTCA) | 0.191 |
| CATGCTACTTGGGTTCTAACCTGTTGCTC (site CATGCTACTGA) | 0.627 |
| CATGTGCCTTGGGTTCTAACCTGTTGCCT (site CATGTGCCTAG) | 1.89 |
| CATGTGCCTTGGGTTCTAACCTGTTGCCT (site TATGCGCCTAG) | 0.329 |
| CATTATCCTTGGGTTCTAACCTGTTGCGT (site CATTATCCTAC) | 1.59 |
| CATTATCCTTGGGTTCTAACCTGTTGCGT (site CATTGTCCTAC) | 0.0752 |
| CATTCCTCTTGGGTTCTAACCTGTTGCCT (site CATTCCTCTAG) | 0.0779 |
| CATTCCTCTTGGGTTCTAACCTGTTGCCT (site CCTTCCTCTAG) | 0.122 |
| CATTCCTCTTGGGTTCTAACCTGTTGCCT (site CGTTCCTCTAG) | 0.0677 |
| CATTCCTCTTGGGTTCTAACCTGTTGCCT (site CTTTCCTCTAG) | 0.0613 |
| CATTCGCCTTGGGTTCTAACCTGTTGCGT (site CATTCGCCTAC) | 0.329 |
| CATTCGCCTTGGGTTCTAACCTGTTGCGT (site TGGCTAGCTGT) | 0.138 |
| CATTGCCCTTGGGTTCTAACCTGTTGCCT (site CATTGCCCTAG) | 0.234 |
| CATTGCCCTTGGGTTCTAACCTGTTGCCT (site CCTTGCCCTAG) | 0.2 |
| CATTGCCCTTGGGTTCTAACCTGTTGCCT (site CGTTGCCCTAG) | 0.242 |
| CATTGCCCTTGGGTTCTAACCTGTTGCCT (site CTTTGCCCTAG) | 0.0205 |
| CATTGGACTTGGGTTCTAACCTGTTGCTT (site AATTGGACTAA) | 0.222 |
| CATTGGACTTGGGTTCTAACCTGTTGCTT (site CATTGGACTAA) | 0.371 |
| CATTGGACTTGGGTTCTAACCTGTTGCTT (site GATTGGACTAA) | 0.023 |
| CATTGGACTTGGGTTCTAACCTGTTGCTT (site TATTGGACTAA) | 0.111 |

| Sequence | recombinant barcode read abundance (log10) |
| --- | --- |
| CATTGTACTTGGGTTCTAACCTGTTGCTA (site CATCGGACTTA) | 0.104 |
| CATTGTACTTGGGTTCTAACCTGTTGCTA (site CATTGTACTTA) | 0.457 |
| CCAAAGACTTGGGTTCTAACCTGTTGCAT (site CCAAAGACTAT) | 0.523 |
| CCAAAGACTTGGGTTCTAACCTGTTGCAT (site CTAAAGACTGT) | 0.334 |
| CCAACCGCTTGGGTTCTAACCTGTTGCCT (site CAAACCGCTAG) | 0.0169 |
| CCAACCGCTTGGGTTCTAACCTGTTGCCT (site CCAACCGCTAG) | 0.423 |
| CCAACCGCTTGGGTTCTAACCTGTTGCCT (site CGAACCGCTAG) | 0.043 |
| CCAACCGCTTGGGTTCTAACCTGTTGCCT (site CTAACCGCTAG) | 0.0644 |
| CCAAGCCCTTGGGTTCTAACCTGTTGCCT (site CCAAGCACTAG) | 0.202 |
| CCAAGCCCTTGGGTTCTAACCTGTTGCCT (site CCAAGCCCTAG) | 0.142 |
| CCAAGCCCTTGGGTTCTAACCTGTTGCCT (site CCAAGCGCTAG) | 0.0593 |
| CCAAGCCCTTGGGTTCTAACCTGTTGCCT (site CCAAGCTCTAG) | 0.0835 |
| CCAAGGACTTGGGTTCTAACCTGTTGCCT (site CCAAGGACTAG) | 0.348 |
| CCAAGGACTTGGGTTCTAACCTGTTGCCT (site CCACGGACTAG) | 0.0394 |
| CCAAGGACTTGGGTTCTAACCTGTTGCCT (site CCAGGGACTAG) | 0.47 |
| CCAAGGACTTGGGTTCTAACCTGTTGCCT (site CCATGGACTAG) | 0.0382 |
| CCAAGGGCTTGGGTTCTAACCTGTTGCTG (site CCAAGGGCTCA) | 1.31 |
| CCAAGGGCTTGGGTTCTAACCTGTTGCTG (site CCAAGGGCTCC) | 0.136 |
| CCAAGGGCTTGGGTTCTAACCTGTTGCTG (site CCAAGGGCTCG) | 0.0611 |
| CCAAGGGCTTGGGTTCTAACCTGTTGCTG (site CCAAGGGCTCT) | 0.727 |
| CCACAGTCTTGGGTTCTAACCTGTTGCCT (site CCACAGTCTAG) | 1.44 |
| CCACAGTCTTGGGTTCTAACCTGTTGCCT (site CCACCGTCTAG) | 0.117 |
| CCACAGTCTTGGGTTCTAACCTGTTGCCT (site CCACGGTCTAG) | 0.169 |
| CCACAGTCTTGGGTTCTAACCTGTTGCCT (site CCACTGTCTAG) | 0.0628 |
| CCACGAGCTTGGGTTCTAACCTGTTGCGG (site CCACGAGCTCC) | 1.4 |

— the supplement of paper PMC11208160
